“Also recorded” adds a separate entry of the source.

Data set [1] relates to adiponectin secreted into the media by differentiated 3T3-L1 cells. As to the kind of experiment: Adiponectin ELISA assay, previously published protocol (differentiated 7 days, treated 24 hours). It counts as cell-based, mouse. To be noted: for fold increase in adiponectin level: 1 μM, greatest fold increase, differentiated 7 days, treated 24 hours. As to the method:
(§1) 3T3-L1, an embryonic mouse cell line (American Type Culture Collection, Manassas, Va.), is a sub-strain of the 3T3 swiss albino line that can differentiate from a pre-adipose to adipose state. These preadipocytes were cultured in Dulbecco's modified Eagle medium (DMEM) containing 10% fetal bovine serum (FBS) (Mediatech, Inc., Herndon, Va.).
(§2) To establish a differentiation protocol, the 3T3-L1 cells were plated into 96-well plates and cultured overnight to confluence. The confluent cells were induced to differentiate 2 days post-confluence. The induction was conducted with 0.5 mM isobutylmethylzanthine, 1.0 μM dexamethasone and 1.7 μM insulin (Sigma-Aldrich, St. Louis, Mo.) supplemented into culture media. On the 7th day the adipocytes were treated with the control compounds or plant extracts for 24 hours. All controls and plant extracts were solublized in DMSO and added to the culture media at 1% of the total volume. Cell media was collected to measure the levels of adiponectin and assayed by enzyme-linked immunosorbent assay (ELISA) according to the manufacturer's protocol (R&D Systems, Minneapolis, Minn.). The assay sensitivity ranged from 31.25-2000 pg/mL. The positive controls were tested in a range from 0.01 to 300 μM (FIG. 1).

Data set [2] has the same test system. As to the kind of experiment: Adiponectin ELISA assay, improved protocol (differentiated 2 days, treated 48 hours). It counts as cell-based, mouse. Particulars: for activity in the adiponectin assay: sub-fractions and isolated compounds of P0017-OE. As to the method:
as §1, §2
Due to the poor signal to background ratio of the assay (less than 2), the previously mentioned protocol needed to be improved. Adipocytes were plated and differentiated as previously described. The cells were differentiated in the differentiation medium for 48 hours either with or without the addition of insulin. Then the cells were treated with the control compounds or plant extracts for only 48 hours post-differentiation. All other parameters were the same as previously mentioned. The indomethacin (FIG. 1) and troglitazone (data not shown) controls were tested at 10-100 μM and 3-30 μM respectively. The greatest increase in the level of adiponectin was 52-fold above the signal of baseline which was achieved by indomethacin treatment at 100 μM, while the lowest increase was 7-fold with indomethacin at 10 μM (FIG. 1B).
In general terms: In an ELISA, binding on a coated surface is turned into a signal by an enzyme label.

Data set [3] concerns C57BL/6J mice fed high fat diet. As to the kind of experiment: Plasma insulin level (ELISA), high-fat diet induced model. It counts as in vivo, mouse. Particulars: day 14 of treatment after 8 weeks high-fat diet; P<0.05; GW1929 5 mg/kg, UP394 and UP396 100 mg/kg. An excerpt: A high-fat diet induced animal model was developed and used for evaluation of potential therapeutic effects of chromone extracts. The C57BL/6J is a clinically relevant animal model that can be used in studies on metabolic disorders, pathophysiology of impaired glucose tolerance and for development of novel therapeutic agents (Ahren et al. (2004) Diabetes 53 (Supplement 3):S215-S219; Laakso et al. (2004) Diabetes Care 27:2253-2259; Kahn et al. (2004) Diabetes 53:3274-3285; Scheurink et al. (1998) European J Endo. 139:461-467; Yuan et al. (2002) Diabetes 51:1851-1858; Reitman et al. (2005) Endocrinology 145:3258-3264; Vlassara et al. (2005) Diabetes 54:2314-2319; Cawthome et al. (2002) Molecular and Cellular Proteomics 1:509-516). Methodology of model induction was first explained by Surwit et al. in 1988 (Diabetes, 37:1163-1167). In brief, impaired glucose tolerance and metabolic disorder like symptoms were inflicted successfully in C57BL/6J mice when fed with high fat diets for 8 weeks. Male C57BL/6J mice were purchased from Jackson Laboratories (Bar Harbor, Me.) at age of 6 weeks. One week after acclimation period, animals were divided into groups (n=5 or 6) and provided with high fat (45% kcal) rodent pellet (Research diets, Inc., New Brunswick, N.J.) and water ad libitum for 12 weeks except at times of glucose and insulin tolerance tests at which feed was withheld for three hours. Animals were maintained in a temperature controlled room (22.2° C.) on a 12 hour light-dark cycle. Blood glucose, cholesterol, and triglyceride were monitored every week for 12 weeks as described previously. Body weight measurement was taken once a week for 12 weeks.
Once induction of the metabolic disorders was confirmed by weekly monitoring of selected parameters (glucose, triglyceride and cholesterol) i.e. on the 8th week, daily intraperitoneal treatment was initiated and maintained for 4 weeks. […]
The plasma insulin levels were measured with an ELISA kit for insulin (Crystal Chem—Chicago, Ill.). […]

The next data set concerns tyrosinase. Particulars: in vitro; Yagi et al. (1987); cited from earlier work.
For data set [4], the system named is human intestinal bacteria. To be noted: cited from earlier work.
Data set [5] deals with C57BL/6J mice fed high fat diet. The data set is described as follows: Intraperitoneal glucose tolerance test, high-fat diet induced model (UP394/UP396). It counts as in vivo, mouse. To be noted: day 18; times 60, 90 and 120 minutes; p<0.05; GW1929 5 mg/kg, UP396 100 mg/kg intraperitoneally. An excerpt:
A high-fat diet induced animal model was developed and used for evaluation of potential therapeutic effects of chromone extracts. The C57BL/6J is a clinically relevant animal model that can be used in studies on metabolic disorders, pathophysiology of impaired glucose tolerance and for development of novel therapeutic agents (Ahren et al. (2004) Diabetes 53 (Supplement 3):S215-S219; Laakso et al. (2004) Diabetes Care 27:2253-2259; Kahn et al. (2004) Diabetes 53:3274-3285; Scheurink et al. (1998) European J Endo. 139:461-467; Yuan et al. (2002) Diabetes 51:1851-1858; Reitman et al. (2005) Endocrinology 145:3258-3264; Vlassara et al. (2005) Diabetes 54:2314-2319; Cawthome et al. (2002) Molecular and Cellular Proteomics 1:509-516). Methodology of model induction was first explained by Surwit et al. in 1988 (Diabetes, 37:1163-1167). […] Blood glucose, cholesterol, and triglyceride were monitored every week for 12 weeks as described previously. […]
An intraperitoneal glucose tolerance test was conducted using the C57BL/6J mice as described in Example 12 at a dose of 2 g/kg on day 18 of treatment with intraperitoneal administration of GW1929 (5 mg/kg), UP394 (100 mg/kg), UP396 (100 mg/kg) and vehicle. […] Blood glucose levels were measured at time 0, 30, 60, 90, and 120 minutes. […]

On to `Cc1c(C)c2c(c(C)c1O)CCC(C)(COc1ccc(CC3SC(=O)NC3=O)cc1)O2` (stereo not drawn) [troglitazone], for which the “fold increase in adiponectin level” value in data set [1] is given as 1.7 fold; in data set [2] (3 μM, treated 48 hours), 24 fold; in data set [2] (30 μM, treated 48 hours) it was 49 fold.

Turning to `COc1ccc2c(c1)c(CC(=O)O)c(C)n2C(=O)c1ccc(Cl)cc1` [indomethacin], the “fold increase in adiponectin level” value in data set [1] is 1.6 fold; in data set [2] (10 μM, differentiated 2 days, treated 2 days) it was 7 fold; in data set [2] (100 μM, differentiated 2 days, treated 2 days) it was 52 fold. The “signal to background ratio of the assay” value in data set [1] (best ratio, indomethacin at concentrations between 0.1-300 μM, published experimental conditions) amounted to 1.6.

Turning to `CC(=O)Cc1cc(=O)c2c(C)cc(O)c([C@@H]3O[C@H](CO)[C@@H](O)[C@H](O)[C@H]3O)c2o1` [UP394, aloesin], the “fold increase in adiponectin level” value in data set [2] (30 μM, treated 48 hours) turned out to be 2 fold. Moreover, the “activity in the adiponectin assay” value in data set [2] is “active in increasing adiponectin production”; in data set [2] (listed as P0017-AC1), “exhibited activity in the adiponectin assay”. Further, the “plasma insulin levels compared to vehicle” value in data set [3] is recorded as “decreased the insulin levels significantly; also recorded: Significant decreases in plasma insulin levels”. For the same compound, in the data set with tyrosinase, the “inhibition of tyrosinase activity” value is on record as “strong inhibitor”. The “cleavage of the c-glucosyl bond” value in data set [4] is reported as “can be cleaved”.

Turning to aloesinol [UP396], the “activity in the adiponectin assay” value in data set [2] was “active in increasing adiponectin production”; in data set [2] (listed as P0017-AC2), “exhibited activity in the adiponectin assay”. Further, the “glucose utilization in intraperitoneal glucose tolerance test compared to vehicle” value in data set [5] was “Significant glucose utilization”. Further, the “plasma insulin levels compared to vehicle” value in data set [3] is given as “decreased the insulin levels significantly; also recorded: Significant decreases in plasma insulin levels”.

For `Cc1cc(O)c(C2OC(O)C(O)C(O)C2CO)c2oc(CC(C)O)cc(=O)c12` (stereo not drawn) [UP396, aloesinol], the “fold increase in adiponectin level” value in data set [2] (30 μM, treated 48 hours) was 3.2 fold.

The values are drawn from US8852657B2, “Chromones as therapeutic agents” (Unigen, Inc., priority 2007, dated 2014).
